Experimental findings from patent US11452674B2, “Non-solvent dental adhesive composition” (KURARAY NORITAKE DENTAL INC., priority 2017, dated 2022) are described below.

A short description of this data set: Solubility in water at 25° C. Particulars: for solubility: 25 °C.

In brackets after ≈: the same amount, converted by molar mass.

Broadly, the solubility is the concentration that dissolves in the medium under given conditions. Read a high solubility as much dissolved substance. `Cc1cc(C)c(C(=O)P(=O)(C(=O)c2c(C)cc(C)cc2C)c2ccccc2)c(C)c1` [BAPO, bis(2,4,6-trimethylbenzoyl)phenylphosphine oxide, reference compound]: for the setting “Solubility in water at 25° C.”, the solubility was under 1 mg/mL.

As for `COCCOCCOCC(=O)Nc1c(C)cc(C)c(C(=O)P(=O)(C(=O)c2c(C)cc(C)c(NC(=O)COCCOCCOC)c2C)c2ccccc2)c1C` [BAPO-A1, reference compound], the solubility (Solubility in water at 25° C.) was under 10 mg/mL.

For `Cc1cc(C)c(C(=O)P(=O)(O)C(=O)c2c(C)cc(C)cc2C)c(C)c1` [BAPO-OLi, lithium bis(2,4,6-trimethylbenzoyl)phosphine oxide], for the setting “Solubility in water at 25° C.”, the solubility was determined as 52 mg/mL (≈ 145 mM).

In the case of `Cc1cc(C)c(C(=O)P(=O)(O)C(=O)c2c(C)cc(C)cc2C)c(C)c1` [BAPO-ONa, sodium bis(2,4,6-trimethylbenzoyl)phosphine oxide], the “Solubility in water at 25° C.” value amounted to 60 mg/mL.

As for `CC12CCC(C(=O)C1=O)C2(C)C` (stereo not drawn) [CQ, d1-camphorquinone], the “Solubility in water at 25° C.” value is 1.7 mg/mL (≈ 10.2 mM).

`Cc1cc(C)c(C(=O)P(=O)(O)c2ccccc2)c(C)c1` [Li-TPO, lithium (2,4,6-trimethylbenzoyl)phenylphosphine oxide] returned a solubility of 45 mg/mL (≈ 156 mM).

Take `Cc1cc(C)c(C(=O)P(=O)(O)c2ccccc2)c(C)c1` [Na-TPO]: the solubility (Solubility in water at 25° C.) was found to be 28 mg/mL (≈ 97.1 mM).

As for `Cc1cc(C)c(C(=O)P(=O)(c2ccccc2)c2ccccc2)c(C)c1` [TMDPO, 2,4,6-trimethylbenzoykliphenylphosphine oxide, reference compound], the “Solubility in water at 25° C.” value was under 1 mg/mL.

On to `COCCOCCOC(=O)Nc1c(C)cc(C)c(C(=O)P(=O)(c2ccccc2)c2ccccc2)c1C` [TMDPO-A1, reference compound], for which, under “Solubility in water at 25° C.”, the solubility was under 10 mg/mL.
